Results reported in PubChem BioAssay (NCI).
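Values below derive from 48-hour exposures of cells grown in 96-well plates, with endpoints linearly interpolated between the two concentrations bracketing the appropriate inhibition level. TGI: concentration producing complete growth inhibition.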 Where a SMILES comes first, the peptide text is derived from it. [ ]: non-standard residue; d: D form.

How the values were obtained:
Experiment in all cases: NCI-60 cell line screen, 48 h
CCRF-CEM leukemia = test system: CCRF-CEM leukemia
MALME-3M melanoma = test system: MALME-3M melanoma
MCF7 breast = test system: MCF7 breast
MDA-MB-435 = test system: MDA-MB-435
MDA-N = test system: MDA-N
NCI-H522 lung = test system: NCI-H522 lung
NCI/ADR-RES ovarian = test system: NCI/ADR-RES ovarian
PC-3 prostate = test system: PC-3 prostate
T-47D breast = test system: T-47D breast
SF-539 CNS = test system: SF-539 CNS

Row | Compound | TGI (CCRF-CEM leukemia) | TGI (MALME-3M melanoma) | TGI (MCF7 breast) | TGI (MDA-MB-435) | TGI (MDA-N) | TGI (NCI-H522 lung) | TGI (NCI/ADR-RES ovarian) | TGI (PC-3 prostate) | TGI (T-47D breast) | TGI (SF-539 CNS)
1 | Cn1cc(-c2csc(-c3cn(C)c4ccccc34)n2)c2ccccc21 | > 100 µM | 70 µM | > 100 µM | > 100 µM | > 100 µM | > 100 µM | > 100 µM | 89.8 µM | 89.6 µM | 
2 | OC1CSc2nc3ccccc3n2C1 (stereo unspecified) | > 100 µM | > 100 µM | > 100 µM | > 100 µM | > 100 µM |  | > 100 µM | > 100 µM | > 100 µM | > 100 µM
3 | CC(Oc1ccc(OCC2CCCCC2)cc1)C(=O)NCc1ccco1 (stereo unspecified) | > 100 µM | 58.7 µM |  |  |  | 35.3 µM |  |  |  | 88.1 µM
4 | O=C1c2ccccc2N2Oc3ccccc3C12c1ccccc1 (stereo unspecified) | > 100 µM | > 100 µM |  |  |  | > 100 µM |  |  |  | > 100 µM
5 | Nc1nc(-c2ccco2)cc(-c2ccc(CO)o2)n1 | > 100 µM | > 100 µM |  |  |  | > 100 µM |  |  |  | > 100 µM
6 | CC(C)Oc1c(-c2ccc(F)cc2)c(O)c2c3c1oc(=O)n3C=CC2C (stereo unspecified) | 29.8 µM | 91.1 µM | 24.3 µM | 52.9 µM | 27.1 µM | 27.2 µM | 29.3 µM | 31.7 µM |  | 26.4 µM
7 | CSc1nc2c(c(=O)[nH]1)N=C(c1ccccc1)CC(c1ccccc1)N2 (stereo unspecified) | > 100 µM | 75.6 µM | 36 µM | > 100 µM | 46.6 µM | 43.9 µM | > 100 µM | > 100 µM |  | 66.3 µM
8 | CC(=O)CC1=C(OC(C)C)C2(OCCO2)C1O (stereo unspecified) | > 100 µM | > 100 µM | > 100 µM | > 100 µM | > 100 µM | > 100 µM |  | > 100 µM | > 100 µM | > 100 µM
9 | CC(C)C[C@H](NC(=O)[C@H](CC(C)C)NC(=O)[C@@H](Cc1c[nH]c2ccccc12)NC(=O)[C@H](Cc1ccccc1)NC(=O)[C@@H](Cc1c[nH]c2ccccc12)NC(=O)[C@H](CCC(N)=O)NC(=O)[C@H](CCC(N)=O)NC(=O)[C@H]1CCCN1C(=O)[C@@H](N)CCCCN)C(N)=O (H-K[dP]QQ[dW]F[dW]LL-NH2) | > 100 µM | > 100 µM | > 100 µM |  |  | > 100 µM | > 100 µM |  |  | > 100 µM
10 | Cc1ccc(N/C(SCc2ccccc2)=C(\C(Cl)=C(Cl)Cl)[N+](=O)[O-])c(C)c1 | > 100 µM | 47.5 µM | > 100 µM | 26.1 µM | 65.1 µM |  | 56.5 µM | > 100 µM | 69.3 µM | 46.1 µM
11 | c1ccc2c(c1)OC(N1CCCC1)c1cnc(N3CCOCC3)nc1-2 (stereo unspecified) | > 100 µM | > 100 µM | 38.2 µM | > 100 µM |  |  |  | > 100 µM | 45.2 µM | > 100 µM
12 | O=C1CC(NCc2ccccc2)c2c(Cl)sc(Cl)c21 (stereo unspecified) | 9.44 µM | 44.4 µM | 50.3 µM | 85.2 µM |  | 18.3 µM | > 86.3 µM | 43 µM | > 100 µM | 57.5 µM
13 | CC[C@@]1(O)C(=O)OCc2c1cc1n(c2=O)Cc2c-1nc1ccccc1c2/C=N/NC(=O)c1ccc(N)cc1 |  | > 87.8 µM | > 100 µM | > 100 µM | > 37.6 µM |  | > 37.8 µM | > 100 µM | 0.389 µM | 0.019 µM
